Experimental data from patent publication US5972894A, “Peptides having potassium channel opener activity” (Cytran, Inc., priority 1997, dated 1999).
Residues, ends and D or L forms follow the SMILES beside them.

System: ischemic myocardium
Assay: Inotropic function and arrhythmias of ischemic isolated rat heart during reperfusion
Details: for Number of Ventricular Extrasystoles / Overall Duration of Ventricular Fibrillation / Overall Duration of Ventricular Tachycardia: 30-minute reperfusion; for -dp/dtmax, % of preischemic value: by the 30th minute of reperfusion
From the text: Rat hearts were surgically isolated from white random-bred rats weighing approximately 250 g. The isolated hearts were perfused with a standard oxygenated (95% O2 and 5% CO2) Krebs-Henseleit solution in a retrograde manner (i.e., according to Langendorff and using a constant perfusate pressure of 80 cm of water). The hearts maintained a steady spontaneous contraction rate. A latex balloon catheter connected to a pressure transducer (EMT-746, Siemens-Elema, Sweden) was inserted into the left ventricle of each heart to measure the inotropic function of the heart (as described in Example 3, above). The left ventricle pressure variation curve was recorded using a polygraph.
Stage I ("adaptation regimen") consisted of a 30-minute adaptation of the respective rat hearts to the perfusion regimen. The baseline parameters for the inotropic function of each heart were recorded to establish the preischemic values for the following measured parameters: (i) the systolic pressure in the left ventricle (Psyst. mm Hg); (ii) the diastolic pressure in the left ventricle (Pdiast. mm Hg); (iii) the evolving pressure (Pev. =Psyst. -Pdist. mm Hg); (iv) the maximal rate of increase of left ventricle pressure (+dp/dtmax mm Hg/sec); and (v) the maximal rate of decrease of left ventricle pressure (-dp/dtmax mm Hg/sec). In addition, the heart rate (HR) of each heart was determined from the recordings made of the variations in the left ventricle pressure over time. In Stage II ("ischemic simulation"), ischemia was induced in each heart by shutting off the supply of the perfusion solution to the heart. Approximately 30 minutes later, Stage III ("reperfusion regimen") was initiated by restarting the reperfusion and including in the perfusate solution a test or control substance at one of the following respective concentrations: a perfusate solution of a test substance comprised 0.06, 0.6, or 6.0 mg/l GE, or 0.06, 0.6, or 6.0 mg/l VT, respectively; a perfusate solution of the positive control substance comprised 14 mg/l inosine. Inosine is a nucleoside preparation that produces a favorable inotropic effect on both normal and ischemic myocardium while inducing no rhythm disturbances or acceleration of ischemic contracture development. Woollard et al., Cardiovasc. Res. 15: 659-67 (1981). Inosine was obtained from Sigma Chemical Company, USA (Cat. Code I-4125; lot number 81H0227). The negative control substance comprised reperfusion using a standard oxygenated Krebs-Henseleit solution.
For each heart, the inotropic function of the myocardium was evaluated by measuring the parameters (i) through (v), discussed above, and the heart rate. These six parameters were recorded continuously throughout the study (i.e., beginning with Stage I and continuing through Stage III). The recordings were analyzed at the following times: (a) immediately before beginning Stage II (that is, after the 30-minute Stage I adaptation period, but before stopping perfusion); and (b) at 1, 5, 10, 20, and 30 minutes into the Stage III reperfusion.
The frequency and duration of rhythm disturbances in the 30-minute Stage III reperfusion period were determined by measuring the following parameters: (i) the number of ventricular extrasystoles; (ii) the overall duration of ventricular tachycardias (in seconds); and (iii) the overall duration of ventricular fibrillation (in seconds). Each dose of the test substance was tested on nine isolated hearts.

## NCC(=O)N[C@@H](CCC(=O)O)C(=O)O [GE, L-Glycyl-L-Glutamic acid] (H-Gly-Glu-OH)
0.06 mg/l
  Number of Ventricular Extrasystoles: 182.2
  Overall Duration of Ventricular Fibrillation: 0 s
  Overall Duration of Ventricular Tachycardia: 2.1 s
0.06 mg/l, 1 min reperfusion
  Diastolic Pressure in Ischemic Left Ventricle (% of Preischemic Mean Value): 95.96%
  Evolving Pressure in Ischemic Left Ventricle (% of Preischemic Mean Value): 117.70%
  Heart Rate during Reperfusion (% of Preischemic Mean Value): 69.09%
  Maximal Rate of Increase of Left Ventricle Pressure (% of Preischemic Mean Value): 127.30%
  Maximal Rate of Left Ventricle Pressure Decrease (% of Preischemic Mean Value): 86.91%
  Systolic Pressure in Ischemic Left Ventricle (% of Preischemic Values): 115.11%
0.06 mg/l, 5 min reperfusion
  Diastolic Pressure in Ischemic Left Ventricle (% of Preischemic Mean Value): 124.53%
  Evolving Pressure in Ischemic Left Ventricle (% of Preischemic Mean Value): 92.58%
  Heart Rate during Reperfusion (% of Preischemic Mean Value): 91.94%
  Maximal Rate of Increase of Left Ventricle Pressure (% of Preischemic Mean Value): 98.87%
  Maximal Rate of Left Ventricle Pressure Decrease (% of Preischemic Mean Value): 89.27%
  Systolic Pressure in Ischemic Left Ventricle (% of Preischemic Values): 98.86%
0.06 mg/l, 10 min reperfusion
  Diastolic Pressure in Ischemic Left Ventricle (% of Preischemic Mean Value): 128.57%
  Evolving Pressure in Ischemic Left Ventricle (% of Preischemic Mean Value): 86.19%
  Heart Rate during Reperfusion (% of Preischemic Mean Value): 93.44%
  Maximal Rate of Increase of Left Ventricle Pressure (% of Preischemic Mean Value): 87.39%
  Maximal Rate of Left Ventricle Pressure Decrease (% of Preischemic Mean Value): 82.04%
  Systolic Pressure in Ischemic Left Ventricle (% of Preischemic Values): 89.79%
0.06 mg/l, 20 min reperfusion
  Diastolic Pressure in Ischemic Left Ventricle (% of Preischemic Mean Value): 134.92%
  Evolving Pressure in Ischemic Left Ventricle (% of Preischemic Mean Value): 74.40%
  Heart Rate during Reperfusion (% of Preischemic Mean Value): 72.87%
  Maximal Rate of Increase of Left Ventricle Pressure (% of Preischemic Mean Value): 87.39%
  Maximal Rate of Left Ventricle Pressure Decrease (% of Preischemic Mean Value): 75.11%
  Systolic Pressure in Ischemic Left Ventricle (% of Preischemic Values): 84.10%
0.06 mg/l, 30 min reperfusion
  Diastolic Pressure in Ischemic Left Ventricle (% of Preischemic Mean Value): 91.20%
  Evolving Pressure in Ischemic Left Ventricle (% of Preischemic Mean Value): 68.73%
  Heart Rate during Reperfusion (% of Preischemic Mean Value): 68.67%
  Maximal Rate of Increase of Left Ventricle Pressure (% of Preischemic Mean Value): 70.93%
  Maximal Rate of Left Ventricle Pressure Decrease (% of Preischemic Mean Value): 66.02%
  Systolic Pressure in Ischemic Left Ventricle (% of Preischemic Values): 72.11%
0.6 mg/l
  Number of Ventricular Extrasystoles: 168.5
  Overall Duration of Ventricular Fibrillation: 44.3 s
  Overall Duration of Ventricular Tachycardia: 22.2 s
  -dp/dtmax, % of preischemic value: greater than 90%
0.6 mg/l, 1 min reperfusion
  Diastolic Pressure in Ischemic Left Ventricle (% of Preischemic Mean Value): 69.70%
  Evolving Pressure in Ischemic Left Ventricle (% of Preischemic Mean Value): 71.90%
  Heart Rate during Reperfusion (% of Preischemic Mean Value): 52.28%
  Maximal Rate of Increase of Left Ventricle Pressure (% of Preischemic Mean Value): 71.21%
  Maximal Rate of Left Ventricle Pressure Decrease (% of Preischemic Mean Value): 53.56%
  Systolic Pressure in Ischemic Left Ventricle (% of Preischemic Values): 74.01%
0.6 mg/l, 5 min reperfusion
  Diastolic Pressure in Ischemic Left Ventricle (% of Preischemic Mean Value): 113.42%
  Evolving Pressure in Ischemic Left Ventricle (% of Preischemic Mean Value): 83.73%
  Heart Rate during Reperfusion (% of Preischemic Mean Value): 85.30%
  Maximal Rate of Increase of Left Ventricle Pressure (% of Preischemic Mean Value): 84.14%
  Maximal Rate of Left Ventricle Pressure Decrease (% of Preischemic Mean Value): 79.56%
  Systolic Pressure in Ischemic Left Ventricle (% of Preischemic Values): 90.02%
0.6 mg/l, 10 min reperfusion
  Diastolic Pressure in Ischemic Left Ventricle (% of Preischemic Mean Value): 95.24%
  Evolving Pressure in Ischemic Left Ventricle (% of Preischemic Mean Value): 86.63%
  Heart Rate during Reperfusion (% of Preischemic Mean Value): 77.07%
  Maximal Rate of Increase of Left Ventricle Pressure (% of Preischemic Mean Value): 88.69%
  Maximal Rate of Left Ventricle Pressure Decrease (% of Preischemic Mean Value): 87.20%
  Systolic Pressure in Ischemic Left Ventricle (% of Preischemic Values): 88.40%
0.6 mg/l, 20 min reperfusion
  Diastolic Pressure in Ischemic Left Ventricle (% of Preischemic Mean Value): 99.28%
  Evolving Pressure in Ischemic Left Ventricle (% of Preischemic Mean Value): 78.42%
  Heart Rate during Reperfusion (% of Preischemic Mean Value): 91.53%
  Maximal Rate of Increase of Left Ventricle Pressure (% of Preischemic Mean Value): 81.12%
  Maximal Rate of Left Ventricle Pressure Decrease (% of Preischemic Mean Value): 84.10%
  Systolic Pressure in Ischemic Left Ventricle (% of Preischemic Values): 82.35%
0.6 mg/l, 30 min reperfusion
  Diastolic Pressure in Ischemic Left Ventricle (% of Preischemic Mean Value): 127.06%
  Evolving Pressure in Ischemic Left Ventricle (% of Preischemic Mean Value): 87.22%
  Heart Rate during Reperfusion (% of Preischemic Mean Value): 106.61%
  Maximal Rate of Increase of Left Ventricle Pressure (% of Preischemic Mean Value): 97.62%
  Maximal Rate of Left Ventricle Pressure Decrease (% of Preischemic Mean Value): 91.20%
  Systolic Pressure in Ischemic Left Ventricle (% of Preischemic Values): 91.89%
0.6 mg/l, after 30 minutes of reperfusion
  restoration of +dp/dtmax: nearly to its preischemic level
0.6 mg/l, after about 20 or about 30 minutes of reperfusion, respectively
  evolving pressure, % of preischemic level: ≥ 85%
6.0 mg/l
  Number of Ventricular Extrasystoles: 174.9
  Overall Duration of Ventricular Fibrillation: 79.6 s
  Overall Duration of Ventricular Tachycardia: 5.2 s
  -dp/dtmax, % of preischemic value: greater than 90%
6.0 mg/l, 1 min reperfusion
  Diastolic Pressure in Ischemic Left Ventricle (% of Preischemic Mean Value): 53.97%
  Evolving Pressure in Ischemic Left Ventricle (% of Preischemic Mean Value): 78.34%
  Heart Rate during Reperfusion (% of Preischemic Mean Value): 38.86%
  Maximal Rate of Increase of Left Ventricle Pressure (% of Preischemic Mean Value): 71.18%
  Maximal Rate of Left Ventricle Pressure Decrease (% of Preischemic Mean Value): 59.93%
  Systolic Pressure in Ischemic Left Ventricle (% of Preischemic Values): 72.87%
6.0 mg/l, 5 min reperfusion
  Diastolic Pressure in Ischemic Left Ventricle (% of Preischemic Mean Value): 65.08%
  Evolving Pressure in Ischemic Left Ventricle (% of Preischemic Mean Value): 68.80%
  Heart Rate during Reperfusion (% of Preischemic Mean Value): 55.65%
  Maximal Rate of Increase of Left Ventricle Pressure (% of Preischemic Mean Value): 68.10%
  Maximal Rate of Left Ventricle Pressure Decrease (% of Preischemic Mean Value): 70.76%
  Systolic Pressure in Ischemic Left Ventricle (% of Preischemic Values): 67.10%
6.0 mg/l, 10 min reperfusion
  Diastolic Pressure in Ischemic Left Ventricle (% of Preischemic Mean Value): 103.17%
  Evolving Pressure in Ischemic Left Ventricle (% of Preischemic Mean Value): 74.86%
  Heart Rate during Reperfusion (% of Preischemic Mean Value): 82.12%
  Maximal Rate of Increase of Left Ventricle Pressure (% of Preischemic Mean Value): 77.78%
  Maximal Rate of Left Ventricle Pressure Decrease (% of Preischemic Mean Value): 93.15%
  Systolic Pressure in Ischemic Left Ventricle (% of Preischemic Values): 77.71%
6.0 mg/l, 20 min reperfusion
  Diastolic Pressure in Ischemic Left Ventricle (% of Preischemic Mean Value): 83.98%
  Evolving Pressure in Ischemic Left Ventricle (% of Preischemic Mean Value): 78.47%
  Heart Rate during Reperfusion (% of Preischemic Mean Value): 77.12%
  Maximal Rate of Increase of Left Ventricle Pressure (% of Preischemic Mean Value): 82.47%
  Maximal Rate of Left Ventricle Pressure Decrease (% of Preischemic Mean Value): 95.32%
  Systolic Pressure in Ischemic Left Ventricle (% of Preischemic Values): 77.71%
6.0 mg/l, 30 min reperfusion
  Diastolic Pressure in Ischemic Left Ventricle (% of Preischemic Mean Value): 132.47%
  Evolving Pressure in Ischemic Left Ventricle (% of Preischemic Mean Value): 73.08%
  Heart Rate during Reperfusion (% of Preischemic Mean Value): 63.29%
  Maximal Rate of Increase of Left Ventricle Pressure (% of Preischemic Mean Value): 74.49%
  Maximal Rate of Left Ventricle Pressure Decrease (% of Preischemic Mean Value): 93.07%
  Systolic Pressure in Ischemic Left Ventricle (% of Preischemic Values): 79.73%
0.06-6.0 mg/l
  arrhythmogenic effect during reperfusion: Neither GE nor VT was found to have an arrhythmogenic effect
0.06 and 0.6 mg/l
  effect on systolic pressure drop: prevented the dramatic drop in systolic pressure
0.06 and 6.0 mg/l
  chronotropic effect on heart rate: moderate negative chronotropic effect
reperfusion
  effect on diastolic pressure increase: prevented the increase in diastolic pressure
